Source: patent US20250120975A1, “INTEGRIN INHIBITORS FOR TREATMENT OF PRIMARY SCLEROSING CHOLANGITIS” (Pliant Therapeutics, Inc., priority 2023, published 2025)

What was measured:
[1] = Plasma and liver concentrations in BALB/c.Mdr2−/− mice at harvest; format: in vivo, mouse
Method: (§1) (S)-4-((2-methoxyethyl)(4-(5,6,7,8-tetrahydro-1,8-naphthyridin-2-yl)butyl)amino)-2-(quinazolin-4-ylamino)butanoic acid (or PBS) was dosed once daily orally at 100 mg/kg, 300 mg/kg or 1000 mg/kg (see Table B-2) starting at 6 weeks after birth of the subject and continuing for 6 weeks. All animals were euthanized and necropsied at the end of week 12.
Plasma samples were assayed by a qualified non-GLP bioanalytical method. Liver samples were homogenized in five volumes of ice-cold water. For plasma and liver homogenate, 20 μL of sample was extracted with 100 μL methanol: acetonitrile (5:95 v: v) containing 10 ng/mL internal standard. The solution was centrifuged at 4000 RPM for 5 minutes and 70 μL of supernatant transferred to injection plate containing 70 μl water. An aliquot of 10 μL was injected to a Sciex 4000 system. Concentrations of (S)-4-((2-methoxyethyl)(4-(5,6,7,8-tetrahydro-1,8-naphthyridin-2-yl)butyl)amino)-2-(quinazolin-4-ylamino)butanoic acid in mouse plasma and liver homogenate were determined by using Analyst 1.6 software (AB Sciex, Foster City, CA). […] Using this bioanalytical method and four-times dilution of the samples, (S)-4-((2-methoxyethyl)(4-(5,6,7,8-tetrahydro-1,8-naphthyridin-2-yl)butyl)amino)-2-(quinazolin-4-ylamino)butanoic acid can be quantified in the range of 0.5-8000 ng/mL in plasma and liver homogenate.

[2] = system: BALB/c.Mdr2−/− mouse model of biliary fibrosis; assay: Assessment of body and organ weights (liver, spleen) and colon length; format: in vivo; details: 6 weeks
From the text: (§2) The tissue source is BALBc.Mdr2-/−male mice that were 6 weeks old. The Mdr2(abcb4)−/− mouse model of sclerosing cholangitis has been previously described and is a model of spontaneously progressive hepatic fibrosis in mice with deletion of the biliary phospholipid flippase on fibrosis-susceptible background (Mdr2(abcb4)^−/−. BALB/c mouse). See N. Ikenaga, et al. (2015) Am J Pathol. 185 (2): 325-334, the entire contents of which are hereby incorporated by reference in their entirety.
as §1
Body, liver and spleen weights and colon length were determined at necropsy. Liver and plasma were snap frozen/preserved in liquid nitrogen. Two pieces of liver were fixed in formalin for histological assessment.

[3] = system: pSMAD3; assay: pSMAD3/SMAD3 MSD assay in mouse liver tissue; format: in vivo; details: all doses (100, 300, 1000 mg/kg), 6 weeks
From the text: as §2, §1
Mouse liver tissues were lysed with RIPA buffer with protease inhibitor cocktail. Total protein concentration was determined by Micro BCA kit. MSD GOLD™ 96 Sm Spot SA Plate was washed three times with 150 μL of PBST and 1 μg/mL of biotinylated anti-SMAD2/3 was added to the plate, 25 μL per well (60 Min incubation under agitation). The plate was washed as before and 12.5 μL of unknown samples plus 12.5 μL of PBST were added in duplicates. […] After wash, 150 μL of 1× read buffer was added and the plate was read using an MSD Sector Imager instrument.

[4] = Phase 2a INTEGRIS-PSC: plasma concentrations (total and unbound); format: in vivo, human; details: 40, 80, 160 mg once daily, 12 weeks
From the text: The pharmacokinetic, pharmacodynamic, and pharmacogenomic assessments included the following: • a) PK: plasma samples for PK analysis (total and unbound(S)-4-((2-methoxyethyl)(4-(5,6,7,8-tetrahydro-1,8-naphthyridin-2-yl)butyl)amino)-2-(quinazolin-4-ylamino)butanoic acid concentrations) were obtained. • b) Biomarkers: plasma, serum (Parts 1, 2, and 3), and urine (Parts 1 and 2) samples were obtained. • c) Pharmacogenomics: a whole blood sample for deoxyribonucleic acid (DNA) isolation was collected before dosing on Day 1 from each subject in the study.
Blood samples for determination of plasma concentrations of (S)-4-((2-methoxyethyl)(4-(5,6,7,8-tetrahydro-1,8-naphthyridin-2-yl)butyl)amino)-2-(quinazolin-4-ylamino)butanoic acid are obtained before and at least 2 hours after administration of (S)-4-((2-methoxyethyl)(4-(5,6,7,8-tetrahydro-1,8-naphthyridin-2-yl)butyl)amino)-2-(quinazolin-4-ylamino)butanoic acid on Day 1, at Weeks 4 and 12(Parts 1, 2, and 3), Week 24 (Part 3 only), and at early termination (if possible, for any subject who prematurely discontinues from the study). The actual time dosing and the actual time of blood collection is recorded. […]

COCCN(CCCCc1ccc2c(n1)NCCC2)CC[C@H](Nc1ncnc2ccccc12)C(=O)O [Bexotegrast, (S)-4-((2-methoxyethyl)(4-(5,6,7,8-tetrahydro-1,8-naphthyridin-2-yl)butyl)amino)-2-(quinazolin-4-ylamino)butanoic acid]
plasma and liver concentrations, comparison of dose groups ([1]; 100, 300 and 1000 mg/kg PO/QD, 6 weeks): higher levels in the 1000 mg/kg group
Kp at 6 weeks ([1]; mouse, liver (relative to plasma), BALB/c.Mdr2−/− mice, after 6 weeks of PO/QD dosing, at harvest, read-out: Liver levels (ng/g) relative to the levels seen in the plasma (ng/mL)): 3 to 5
liver weight relative to vehicle control ([2]; 1000 mg/kg/day): decreased
colon length ([2]; 100, 300, 1000 mg/kg): did not change
spleen weights ([2]; all doses (100, 300, 1000 mg/kg)): no changes
pSMAD3 levels in liver [3]: decreased
total and unbound plasma concentrations vs dose [4]: increased with dose
